# Values of other authors, collected in patent publication US7049120B2, “Regulation of human mrp5-like protein” (Bayer HealthCare AG, priority 2001, dated 2006).
# Columns and labels:
# [1] = target: T1, MRP5 (Homo sapiens, UniProt O15440); design: host or cells: V79 hamster lung fibroblasts, stably expressing; conditions: MRP5 stably expressed in V79 hamster lung fibroblasts; Jedlitschsky et al., 2000
# [2] = target: T1, MRP5; design: host or cells: polarized Madin-Darby canine kidney II (MDCK II) cells, transfected; conditions: polarized MDCK II cells overexpressing human MRP5; Wijnholds et al., 2000
# [3] = target: T1, MRP5; design: host or cells: polarized Madin-Darby canine kidney II (MDCK II) cells, transfected; conditions: MDCK II cells transfected with human MRP5; Wijnholds et al., 2000
# T1 sequence (O15440 whole entry): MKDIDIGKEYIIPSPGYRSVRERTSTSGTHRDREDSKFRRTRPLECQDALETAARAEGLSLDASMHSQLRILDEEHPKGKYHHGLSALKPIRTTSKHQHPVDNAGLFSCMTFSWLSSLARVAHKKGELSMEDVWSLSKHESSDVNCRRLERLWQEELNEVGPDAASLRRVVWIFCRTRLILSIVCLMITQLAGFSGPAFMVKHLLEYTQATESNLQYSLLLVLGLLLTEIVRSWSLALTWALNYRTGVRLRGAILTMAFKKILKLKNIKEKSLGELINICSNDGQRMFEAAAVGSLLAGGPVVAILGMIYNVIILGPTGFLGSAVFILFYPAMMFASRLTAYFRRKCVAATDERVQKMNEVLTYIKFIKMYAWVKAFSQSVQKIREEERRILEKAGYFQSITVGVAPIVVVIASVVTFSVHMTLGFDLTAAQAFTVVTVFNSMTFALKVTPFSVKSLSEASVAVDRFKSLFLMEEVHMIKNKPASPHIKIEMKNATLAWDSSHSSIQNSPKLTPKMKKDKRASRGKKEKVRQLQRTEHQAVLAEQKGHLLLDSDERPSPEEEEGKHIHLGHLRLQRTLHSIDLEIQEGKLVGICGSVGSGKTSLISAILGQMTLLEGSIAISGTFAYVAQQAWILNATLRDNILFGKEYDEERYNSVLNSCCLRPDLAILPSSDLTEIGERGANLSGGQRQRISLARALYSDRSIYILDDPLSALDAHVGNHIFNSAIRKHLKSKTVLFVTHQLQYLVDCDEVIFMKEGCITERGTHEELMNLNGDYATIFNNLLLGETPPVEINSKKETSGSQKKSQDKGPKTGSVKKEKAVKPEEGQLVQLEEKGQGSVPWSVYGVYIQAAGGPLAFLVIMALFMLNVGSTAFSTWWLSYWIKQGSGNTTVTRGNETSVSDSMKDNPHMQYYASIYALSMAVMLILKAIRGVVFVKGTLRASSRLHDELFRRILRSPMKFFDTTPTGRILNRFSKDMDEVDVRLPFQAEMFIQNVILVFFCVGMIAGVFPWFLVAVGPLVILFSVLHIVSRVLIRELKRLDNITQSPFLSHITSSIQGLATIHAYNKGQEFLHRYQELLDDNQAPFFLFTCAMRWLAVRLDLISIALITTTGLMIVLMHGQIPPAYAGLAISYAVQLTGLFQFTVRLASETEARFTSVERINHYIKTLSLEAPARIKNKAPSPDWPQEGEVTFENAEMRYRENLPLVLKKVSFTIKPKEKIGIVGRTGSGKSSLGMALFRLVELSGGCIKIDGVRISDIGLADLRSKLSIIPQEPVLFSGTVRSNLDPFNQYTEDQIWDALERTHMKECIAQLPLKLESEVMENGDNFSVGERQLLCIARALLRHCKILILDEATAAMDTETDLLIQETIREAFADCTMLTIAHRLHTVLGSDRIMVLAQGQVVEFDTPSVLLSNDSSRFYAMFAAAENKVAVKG
compound,measurement,setting,value
COc1cc2c(cc1OC)-c1c/c(=N\c3c(C)cc(C)cc3C)n(C)c(=O)n1CC2 [Trequinsin],inhibition of MRP5-mediated transport of cyclic nucleotides such as cGMP,[1],inhibited
Nc1nc2nc[nH]c2c(=S)[nH]1 [thioguanine],resistance of MRP5-overexpressing cells to the drug,[2],resistant
"Nc1ncnc2c1ncn2CCOCP(=O)(O)O [PMEA, 9-(2-phosphonylmethoxyethyl)-adenine]",transport of the drug by MRP5-transfected cells,[3],transport
CCCc1nn(C)c2c(=O)[nH]c(-c3cc(S(=O)(=O)N4CCN(C)CC4)ccc3OCC)nc12 [Sildenafil],inhibition of MRP5-mediated transport of cyclic nucleotides such as cGMP,[1],inhibited
Sc1ncnc2nc[nH]c12 [6-mercaptopurine],resistance of MRP5-overexpressing cells to the drug,[2],resistant
CCCOc1ccccc1-c1nc2nn[nH]c2c(=O)[nH]1 [Zaprinast],inhibition of MRP5-mediated transport of cyclic nucleotides such as cGMP,[1],inhibited
